# Patent US8653087B2, “Pyrido [5, 4-D] pyrimidines as cell proliferation inhibitors” (Boehringer Ingelheim International GmbH, priority 2008, dated 2014)
# Target: B-Raf (V600E)-kinase (Homo sapiens (Human), UniProt P15056, V600E)
# Test: Kinase test B-RAF (V600E)
# Assay type: biochemical
# Conditions: B-RAF (V600E) kinase test, 250 μM ATP
# Method in brief: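 Read-out is DELFIA europium TRF of phospho-MEK (Ser217/221) on biotinylated MEK1 bound to streptavidin plates, IC50 from dose-response. Reaction ran 60 min at RT with 250 μM ATP, after a 24 h RT preincubation of compound with B-Raf (V600E) kinase, 5% DMSO final.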
# B-Raf (V600E)-kinase, sequence (P15056 whole entry V600E): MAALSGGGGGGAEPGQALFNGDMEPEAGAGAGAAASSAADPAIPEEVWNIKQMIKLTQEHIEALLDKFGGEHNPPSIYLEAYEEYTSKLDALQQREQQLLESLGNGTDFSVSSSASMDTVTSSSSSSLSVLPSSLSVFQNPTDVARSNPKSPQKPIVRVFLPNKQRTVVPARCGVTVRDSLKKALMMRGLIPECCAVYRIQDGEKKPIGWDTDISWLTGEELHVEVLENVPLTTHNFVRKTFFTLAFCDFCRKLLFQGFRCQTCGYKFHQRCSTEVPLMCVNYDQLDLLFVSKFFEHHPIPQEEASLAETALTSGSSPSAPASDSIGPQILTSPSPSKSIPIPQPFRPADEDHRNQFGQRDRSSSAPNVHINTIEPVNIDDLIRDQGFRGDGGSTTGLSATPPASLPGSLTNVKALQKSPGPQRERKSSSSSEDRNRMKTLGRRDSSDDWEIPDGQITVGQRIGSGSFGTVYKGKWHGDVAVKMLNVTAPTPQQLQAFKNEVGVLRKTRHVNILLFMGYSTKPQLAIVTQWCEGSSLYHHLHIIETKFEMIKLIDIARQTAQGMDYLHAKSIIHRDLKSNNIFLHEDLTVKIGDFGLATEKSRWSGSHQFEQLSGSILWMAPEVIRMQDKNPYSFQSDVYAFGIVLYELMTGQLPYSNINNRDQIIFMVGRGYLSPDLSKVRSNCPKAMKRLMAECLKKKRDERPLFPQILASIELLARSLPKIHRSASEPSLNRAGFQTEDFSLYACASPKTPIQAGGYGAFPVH
row,IC50 [nM],SMILES
1,11,COc1c(NC(=O)c2ccc(C)c(Nc3ncnc4cnc(N5CCOCC5)nc34)c2)cc(C(C)(C)C)cc1NS(C)(=O)=O [III-323]
2,3,COc1ccc(NC(=O)c2ccc(Cl)c(Nc3ncnc4cnc(NCCN(C)C)nc34)c2)cc1C(F)(F)F [III-14]
3,3,Cc1ccc(C(=O)Nc2cc(CN3CCCC3)cc(C(F)(F)F)c2)cc1Nc1ncnc2cnc(NCc3ccccc3)nc12 [III-105]
4,24,Cc1ccc(NC(=O)c2cccc(C(F)(F)F)c2)cc1Nc1ncnc2c(N)nc(N3CCN(C4CCCC4)CC3)nc12 [II-9]
5,2,Cc1ccc(C(=O)Nc2cccc(C(C)(C)C#N)c2)cc1Nc1ncnc2cnc(NCC(C)C)nc12 [III-520]
6,3,Cc1ccc(C(=O)Nc2ccc(Cl)c(C(F)(F)F)c2)cc1Nc1ncnc2c(N)nc(N3CCN(C)CC3)nc12 [I-74]
7,3,COc1ccc(C(C)(C)C)cc1NC(=O)c1ccc(C)c(Nc2ncnc3cnc(N4CCN(CC5CCN(C)CC5)CC4)nc23)c1 [III-415]
8,7,COc1ccc(NC(=O)c2ccc(Cl)c(Nc3ncnc4cnc(N5CCCCCC5)nc34)c2)cc1C(F)(F)F [III-6]
9,3,COCCN1CCN(c2ncc3ncnc(Nc4cc(C(=O)Nc5cc(C(C)(C)C)on5)ccc4C)c3n2)CC1 [III-517]
10,> 15000,Cc1ccc(C(=O)NC2CCCCC2)cc1Nc1ncnc2cnc(N3CCCN(C)CC3)nc12 [III-183]
11,81,Cc1ccc(NC(=O)c2cccc(C(F)(F)F)c2)cc1Nc1ncnc2c(N)nc(NCc3ccncc3)nc12 [II-4]
12,587,COc1ccc(NC(=O)c2ccc(C(F)(F)F)c(Nc3ncnc4cnc(NCCCN5CCOCC5)nc34)c2)cc1C(F)(F)F [III-49]
13,7,Cc1ccc(NC(=O)c2cccc(C(F)(F)F)c2)cc1Nc1ncnc2c(N)nc(N3CCCN(c4ccncc4)CC3)nc12 [II-12]
14,292,Cc1ccc(C(=O)Nc2ccccc2)cc1Nc1ncnc2cnc(N3CCOCC3)nc12 [III-326]
15,35,COc1ccc(C(=O)Nc2cccc(C(F)(F)F)c2)cc1Nc1ncnc2c(N)nc(N3CCN(C)CC3)nc12 [I-30]
16,1830,CC(C)(C)c1cc(NC(=O)c2ccc(C(F)(F)F)c(Nc3ncnc4cnc(N5CCCCCC5)nc34)c2)no1 [III-57]
17,4,Cc1ccc(C(=O)Nc2cc(C(C)(C)C)n[nH]2)cc1Nc1ncnc2c(N)nc(N3CCN4CCCCC4C3)nc12 (stereo not shown) [I-43]
18,59,Cc1ccc(C(=O)Nc2cccc(S(=O)(=O)N(C)C)c2)cc1Nc1ncnc2cnc(N(C)CCN(C)C)nc12 [III-195]
19,2,Cc1ccc(C(=O)Nc2cc(C(C)(C)C)on2)cc1Nc1ncnc2cncnc12 [V-1]
20,57,CN1CCN(c2nc(N)c3ncnc(Nc4cccc(C(=O)Nc5cccc(C(F)(F)F)c5)c4)c3n2)CC1 [I-19]
21,1,CC(C)(C)c1cc(NC(=O)c2ccc(Cl)c(Nc3ncnc4cnc(N5CCOCC5)nc34)c2)no1 [III-75]
22,120,COc1ccc(C(F)(F)F)cc1NC(=O)c1ccc(C)c(Nc2ncnc3cnc(N4CCCC4)nc23)c1 [III-268]
23,1,CN(C)CCN(C)c1ncc2ncnc(Nc3cc(C(=O)Nc4cc(C(C)(C)C)on4)ccc3Cl)c2n1 [III-79]
24,4,COc1ccc(NC(=O)c2ccc(F)c(Nc3ncnc4cnc(N5CCOCC5)nc34)c2)cc1C(F)(F)F [III-37]

row,IC50 [nM],SMILES
1,2000,Cc1ccc(C(=O)NC2CC2)cc1Nc1ncnc2cnc(N3CCCC3)nc12 [III-260]
2,5,COc1ccc(NC(=O)c2ccc(C(F)(F)F)c(Nc3ncnc4cnc(N5CCOCC5)nc34)c2)cc1C(F)(F)F [III-50]
3,4,Cc1ccc(C(=O)Nc2cc(C(C)(C)C)n[nH]2)cc1Nc1ncnc2c(N)nc(N3CCN(CC4CCN(C)CC4)CC3)nc12 [I-13]
4,1,COc1ccc(NC(=O)c2ccc(C)c(Nc3ncnc4cnc(NC5CC(N6CCN(C)CC6)C5)nc34)c2)cc1C(F)(F)F (stereo not shown) [III-593]
5,15,Cc1ccc(C(=O)Nc2cccc(N(C)C)c2)cc1Nc1ncnc2cnc(N3CCNCC3)nc12 [III-263]
6,2,Cc1ccc(C(=O)Nc2cc(C(C)(C)C)on2)cc1Nc1ncnc2cnc(NCc3ccccc3)nc12 [III-521]
7,> 2000,Cc1ccc(C(=O)Nc2ccccc2)cc1Nc1ncnc2cnc(N(C)CCN(C)C)nc12 [III-202]
8,2,Cc1ccc(C(=O)Nc2cc(CN3CCCC3)cc(C(F)(F)F)c2)cc1Nc1ncnc2cnc(N3CC[C@H](F)C3)nc12 [III-459]
9,61,Cc1ccc(C(=O)NCc2cccc(C(F)(F)F)c2)cc1Nc1ncnc2cnc(N3CCCC3)nc12 [III-257]
10,2,Cc1ccc(C(=O)Nc2cc(C(C)(C)C)nn2C)cc1Nc1ncnc2cnc(NCc3ccccc3)nc12 [III-429]
11,21,COc1ccc(C(C)(C)C)cc1NC(=O)c1ccc(C)c(Nc2ncnc3cnc(N4CC[C@H](F)C4)nc23)c1 [III-291]
12,6,CN(C)c1ncc2ncnc(Nc3cc(C(=O)Nc4cc(C(C)(C)C)on4)ccc3Cl)c2n1 [III-69]
13,16,Cc1ccc(C(=O)Nc2ccc3c(c2)C(C)(C)C(=O)N3CCN2CCCC2)cc1Nc1ncnc2cnc(N(C)CCN(C)C)nc12 [III-196]
14,1,Cc1ccc(C(=O)Nc2cccc(OC(F)(F)F)c2)cc1Nc1ncnc2cnc(N3CC[C@H](F)C3)nc12 [III-290]
15,7,Cc1ccc(C(=O)Nc2cccc(C(C)(C)C#N)c2)cc1Nc1ncnc2cnc(NCc3ccccc3)nc12 [III-430]
16,2,Cc1ccc(C(=O)Nc2cc(C(F)(F)F)ccn2)cc1Nc1ncnc2c(N)nc(N3CCN(C)CC3)nc12 [I-73]
17,83,CN1CCCN(c2nc(N)c3ncnc(Nc4cc(C(=O)Nc5cccc(C(F)(F)F)c5)ccc4Br)c3n2)CC1 [I-27]
18,2,COc1ccc(NC(=O)c2ccc(C)c(Nc3ncnc4cnc(N5CCCC5)nc34)c2)cc1C(F)(F)F [III-445]
19,13,COc1ncc2ncnc(Nc3cc(NC(=O)c4ccc(OC)c(C(F)(F)F)c4)ccc3C)c2n1 [IV-42]
20,200,Cc1ccc(C(=O)Nc2nnc(C(F)(F)F)s2)cc1Nc1ncnc2cnc(N3CCOCC3)nc12 [III-313]
21,1,COCCNc1ncc2ncnc(Nc3cc(C(=O)Nc4cc(OCCN(C)C)cc(C(F)(F)F)c4)ccc3C)c2n1 [III-151]
22,2,Cc1ccc(C(=O)Nc2cccc(C(C)(C)C)c2)cc1Nc1ncnc2c(N)nc(N3CCN(C)CC3)nc12 [I-80]
23,5,Cc1ccc(NC(=O)c2cccc(C(C)(C)C#N)c2)cc1Nc1ncnc2cnc(N(C)C3CCOCC3)nc12 [IV-31]
24,< 1,Cc1ccc(C(=O)Nc2cccc(C(F)(F)F)c2)cc1Nc1ncnc2cnc(NC3CCOC3)nc12 (stereo not shown) [III-349]

row,IC50 [nM],SMILES
1,4,COc1ccc(C(=O)Nc2ccc(OC)c(C(F)(F)F)c2)cc1Nc1ncnc2cnc(N(C)CCN(C)C)nc12 [III-18]
2,45,Cc1ccc(NC(=O)c2cccc(C(F)(F)F)c2)cc1Nc1ncnc2c(N)nc(N3CCCN(c4ncccn4)CC3)nc12 [II-16]
3,1,CN(C)CCNc1ncc2ncnc(Nc3cc(C(=O)Nc4cc(C(C)(C)C)on4)ccc3F)c2n1 [III-91]
4,4,CC(C)(C)c1cc(NC(=O)c2ccc(F)c(Nc3ncnc4cnc(N5CCN(CC6CC6)CC5)nc34)c2)no1 [III-397]
5,2,CC(C)(C)c1cc(NC(=O)c2ccc(Cl)c(Nc3ncnc4cnc(NCCN5CCOCC5)nc34)c2)no1 [III-78]
6,318,COc1ccc(NC(=O)c2ccc(C(F)(F)F)c(Nc3ncnc4cnc(NCCN5CCOCC5)nc34)c2)cc1C(F)(F)F [III-53]
7,< 1,Cc1ccc(C(=O)Nc2cccc(C(F)(F)F)c2)cc1Nc1ncnc2c(N)nc(N3CCN(C(C)C)CC3)nc12 [I-64]
8,12,COc1ccc(C(=O)Nc2cccc(C(F)(F)F)c2)cc1Nc1ncnc2c(N)nc(N3CCN(CC4CCN(C)CC4)CC3)nc12 [I-33]
9,1,Cc1ccc(C(=O)Nc2cccc(C(C)(C)C)c2)cc1Nc1ncnc2cnc(N3CCN(C)CC3)nc12 [III-229]
10,> 15000,Cc1ccc(C(=O)NC2CCCCC2)cc1Nc1ncnc2cnc(N3CCN(C)CC3)nc12 [III-189]
11,10,Cc1ccc(C(=O)Nc2cc(N(C)CCN(C)C)cc(C(F)(F)F)c2)cc1Nc1ncnc2cnc(N(C)CC3CCCCO3)nc12 (stereo not shown) [III-407]
12,33,Cc1ccc(C(=O)Nc2cc(C(C)(C)C)on2)cc1N(C)c1ncnc2cnc(NC3CCOC3)nc12 (stereo not shown) [III-581]
13,2000,CCCS(=O)(=O)Nc1ccc(C)c(Nc2ncnc3cnc(N4CCN(C)CC4)nc23)c1 [IV-65]
14,10,COc1ccc(C(C)(C)C)cc1NC(=O)c1ccc(C)c(Nc2ncnc3cnc(N4CCCCC4)nc23)c1 [III-249]
15,17,COc1ccc(NC(=O)c2ccc(C)c(Nc3ncnc4cnc(N5CCN(CCN6CCOCC6)CC5)nc34)c2)cc1C(F)(F)F [III-552]
16,1,Cc1ccc(NC(=O)c2cccc(C(C)(C)C#N)c2)cc1Nc1ncnc2cnc(N3CCN(C)CC3)nc12 [IV-7]
17,8,COc1ccc(NC(=O)c2ccc(C)c(Nc3ncnc4cnc(-n5cnc(C)c5)nc34)c2)cc1C(F)(F)F [III-549]
18,2000,Cc1ccc(NS(=O)(=O)CCC(F)(F)F)cc1Nc1ncnc2cnc(N3CCN(C)CC3)nc12 [IV-59]
19,50,Cc1ccc(NC(=O)c2cccc(C(F)(F)F)c2)cc1Nc1ncnc2c(N)nc(NCc3cccnc3)nc12 [II-5]
20,> 10000,Cc1ccc(C(=O)NC2CCCCC2)cc1Nc1ncnc2cnc(N(C)CCN(C)C)nc12 [III-201]
21,272,Cc1ccc(C(=O)Nc2cc(N(C)CCN(C)C)cc(C(F)(F)F)c2)cc1Nc1ncnc2cnc(N3CCCC3)nc12 [III-440]
22,9,Cc1ccc(C(=O)Nc2ccc(F)c(C(F)(F)F)c2)cc1Nc1ncnc2cnc(N3CCOCC3)nc12 [III-314]
23,< 1,CNc1ncc2ncnc(Nc3cc(C(=O)Nc4cc(OCCN(C)C)cc(C(F)(F)F)c4)ccc3C)c2n1 [III-156]

row,SMILES,IC50 [nM]
1,Cc1ccc(C(=O)Nc2ccc(C#N)c(C(F)(F)F)c2)cc1Nc1ncnc2cnc(N3CCOCC3)nc12 [III-340],4
2,COCCN1CCN(c2ncc3ncnc(Nc4cc(C(=O)Nc5ccc(C#N)c(C(F)(F)F)c5)ccc4C)c3n2)CC1 [III-532],2
